Data on two compounds can be found in ChEMBL document CHEMBL3046756, “Synthesis, anti-inflammatory, and structure antioxidant activity relationship of novel 4-quinazoline” (Med Chem Res, 2013).

Calls of active or inactive are those of the source. The rule behind the calls is not given here.

Series [1] has as its system Mus musculus. Kind of series: Toxicity in albino Mus musculus (mouse) assessed as rapid respiration at 150 to 900 mg/kg, ip measured within 1 to 2 hr. As to conditions: in vivo. Also noted: route intraperitoneal. The format is organism-based.
For series [2], the system named is Mus musculus. Kind of series: Toxicity in albino Mus musculus (mouse) assessed as change in eye color at 150 to 900 mg/kg, ip measured within 24 hr. Also noted: dose 150-900 mg/kg, route intraperitoneal. As to conditions: in vivo. The format is organism-based.
Series [3] concerns Mus musculus. Kind of series: Toxicity in albino Mus musculus (mouse) assessed as change in toes color at 150 to 900 mg/kg, ip measured within 24 hr. Particulars: in vivo. The format is organism-based. Details: dose 150-900 mg/kg, route intraperitoneal.
In series [4] the test system is Mus musculus. Kind of series: Toxicity in albino Mus musculus (mouse) assessed as change in eye color at 650 to 1800 mg/kg, ip measured within 24 hr. Particulars: in vivo. In kind it is organism-based. Details: dose 650-1800 mg/kg, route intraperitoneal.
A short description of series [5]: Antioxidant activity assessed as Fe2+ chelating activity at 1.25 mg/ml after 90 min by spectrophotometric analysis. The format is functional.
The subject of series [6] is Mus musculus. Kind of series: Toxicity in albino Mus musculus (mouse) assessed as change in temperature at extremities at 650 to 1800 mg/kg, ip measured within 24 hr. The format is organism-based. Also noted: dose 650-1800 mg/kg, route intraperitoneal. As to conditions: in vivo.
The nature of series [7]: Antioxidant activity assessed as inhibition of linoleic acid peroxidation at 100 mg/l after 24 hr by spectrophotometric analysis. The format is functional.

With `O=c1c2ccccc2nc2n1NC(c1ccc(O)c(O)c1)C2` (configuration not stated), the Activity result with Mus musculus [1], with Mus musculus [2] and with Mus musculus [3] was “Toxic” each time.
Consider `COC(=O)c1ccccc1NC(=O)/C=C/c1ccc(O)c(O)c1`, for which the Activity result in the series on Mus musculus [4] was “Toxic”; in series [5] it was 30%; with Mus musculus [6] it was “Toxic”. Also, the inhibition result in series [7] is “Active”.
